Data: patent publication US20240216355A1, “PHARMACEUTICAL COMPOSITIONS FOR USE IN THE PREVENTION AND TREATMENT OF A DISEASE OR DISORDER CAUSED BY OR ASSOCIATED WITH ONE OR MORE PREMATURE TERMINATION CODONS” (Monte Rosa Therapeutics, Inc., priority 2021, published 2024)
Like-named read-outs stand apart in the source and are kept apart here.

Key:
[1] = target: T1, Full length wild-type cereblon CRBN (Homo sapiens, UniProt Q96SW2); test: Fluorescence polarization (FP) assay indicating cereblon binding
T1 construct: Full length wild-type cereblon CRBN (80.0 nM, 10 μL) was incubated in assay buffer
T1 sequence (Q96SW2 whole entry): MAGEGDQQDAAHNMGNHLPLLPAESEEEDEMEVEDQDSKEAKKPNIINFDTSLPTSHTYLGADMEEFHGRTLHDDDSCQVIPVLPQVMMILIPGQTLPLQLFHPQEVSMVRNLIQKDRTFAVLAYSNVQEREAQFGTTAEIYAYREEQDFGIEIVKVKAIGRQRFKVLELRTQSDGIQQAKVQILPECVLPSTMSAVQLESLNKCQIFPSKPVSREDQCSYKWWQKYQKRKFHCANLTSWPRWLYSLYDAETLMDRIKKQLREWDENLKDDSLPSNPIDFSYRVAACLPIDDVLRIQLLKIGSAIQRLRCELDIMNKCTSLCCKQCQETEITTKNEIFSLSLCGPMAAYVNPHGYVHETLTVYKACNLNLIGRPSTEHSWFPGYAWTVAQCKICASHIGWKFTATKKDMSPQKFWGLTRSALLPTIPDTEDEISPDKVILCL
Description: Compound activity was monitored in a fluorescence polarization (FP) homogeneous assay using 1-[5-({2-[2-(2-{[2-(2,6-dioxopiperidin-3-yl)-1,3-dioxo-2,3-dihydro-1H-isoindol-4-yl]oxy}acetamido)ethoxy]ethyl}carbamoyl)pentyl]-3,3-dimethyl-2-[(1E,3E)-5-[(2E)-1,3,3-trimethyl-5-sulfo-2,3-dihydro-1H-indol-2-ylidene]penta-1,3-dien-1-yl]-3H-indol-1-ium-5-sulfonate as a fluorescent probe. Unless otherwise stated, all reagents were purchased from Sigma Aldrich. Enzymatic reactions were conducted in Perkin-Elmer Black 384 well ProxiPlate Plus (catalogue no. 6008269) in 10 μL total volume. Full length wild-type cereblon CRBN (80.0 nM, 10 μL) was incubated in assay buffer containing 20 mM HEPES (pH 8.0), […], 0.5 mM TCEP and 0.05% Tween 20 in the presence or absence of compound (300 nL). Inhibitors were stored as 10 mM DMSO stocks in an inert environment (low humidity, dark, low oxygen, room temperature) using the Storage Pod System. Compounds and DMSO were dispensed using the Echo E5XX (Labcyte Inc. USA) to give concentrations from 300 to 0.937 or 3000 to 9.3 nM in a 12 data point curve. […] Following incubation at room temperature for 30 min, the assay was initiated by dispensing the probe to a final concentration of 5 nM (2.5 nL of a 20 μM stock) using the Echo E5XX. FP was measured after a period of 12 hours using a Pherastar plate reader (BMG Labtech, Germany) exciting at 590 nm and measuring the amount of parallel and perpendicular light at 675 nm. The FP signal was subsequently normalized to the no-compound control (i.e., DMSO). Analysis and IC50 values were derived using Dotmatics (Dotmatics UK) software.

[2] = target: T2, GSPT1 (Homo sapiens, UniProt P15170+Q96SW2); test: GSPT1 degradation immunofluorescence assay in CAL-51 cells; format: cell-based; settings: 6 hours treatment
T2 construct: CAL-51 cells were purchased from DSMZ (cat. Number ACC302); host or cells: CAL-51 cells
T2 sequence (P15170 whole entry): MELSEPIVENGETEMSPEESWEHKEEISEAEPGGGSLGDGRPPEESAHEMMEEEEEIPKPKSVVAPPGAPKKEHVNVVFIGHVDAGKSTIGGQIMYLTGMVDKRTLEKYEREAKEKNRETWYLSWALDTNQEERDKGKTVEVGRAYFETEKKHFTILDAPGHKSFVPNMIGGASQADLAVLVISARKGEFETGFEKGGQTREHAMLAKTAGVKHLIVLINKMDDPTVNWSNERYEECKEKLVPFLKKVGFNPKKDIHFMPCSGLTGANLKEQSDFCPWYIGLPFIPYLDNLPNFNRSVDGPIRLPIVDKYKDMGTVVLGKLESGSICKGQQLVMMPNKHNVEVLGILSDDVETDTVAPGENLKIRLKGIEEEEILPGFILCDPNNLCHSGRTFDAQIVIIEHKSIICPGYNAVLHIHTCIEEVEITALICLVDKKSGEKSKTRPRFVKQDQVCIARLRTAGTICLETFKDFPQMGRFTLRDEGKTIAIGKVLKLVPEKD
T2 sequence (Q96SW2 whole entry): as the sequence (Q96SW2 whole entry) above
T2 sequence (Q16531 whole entry partner): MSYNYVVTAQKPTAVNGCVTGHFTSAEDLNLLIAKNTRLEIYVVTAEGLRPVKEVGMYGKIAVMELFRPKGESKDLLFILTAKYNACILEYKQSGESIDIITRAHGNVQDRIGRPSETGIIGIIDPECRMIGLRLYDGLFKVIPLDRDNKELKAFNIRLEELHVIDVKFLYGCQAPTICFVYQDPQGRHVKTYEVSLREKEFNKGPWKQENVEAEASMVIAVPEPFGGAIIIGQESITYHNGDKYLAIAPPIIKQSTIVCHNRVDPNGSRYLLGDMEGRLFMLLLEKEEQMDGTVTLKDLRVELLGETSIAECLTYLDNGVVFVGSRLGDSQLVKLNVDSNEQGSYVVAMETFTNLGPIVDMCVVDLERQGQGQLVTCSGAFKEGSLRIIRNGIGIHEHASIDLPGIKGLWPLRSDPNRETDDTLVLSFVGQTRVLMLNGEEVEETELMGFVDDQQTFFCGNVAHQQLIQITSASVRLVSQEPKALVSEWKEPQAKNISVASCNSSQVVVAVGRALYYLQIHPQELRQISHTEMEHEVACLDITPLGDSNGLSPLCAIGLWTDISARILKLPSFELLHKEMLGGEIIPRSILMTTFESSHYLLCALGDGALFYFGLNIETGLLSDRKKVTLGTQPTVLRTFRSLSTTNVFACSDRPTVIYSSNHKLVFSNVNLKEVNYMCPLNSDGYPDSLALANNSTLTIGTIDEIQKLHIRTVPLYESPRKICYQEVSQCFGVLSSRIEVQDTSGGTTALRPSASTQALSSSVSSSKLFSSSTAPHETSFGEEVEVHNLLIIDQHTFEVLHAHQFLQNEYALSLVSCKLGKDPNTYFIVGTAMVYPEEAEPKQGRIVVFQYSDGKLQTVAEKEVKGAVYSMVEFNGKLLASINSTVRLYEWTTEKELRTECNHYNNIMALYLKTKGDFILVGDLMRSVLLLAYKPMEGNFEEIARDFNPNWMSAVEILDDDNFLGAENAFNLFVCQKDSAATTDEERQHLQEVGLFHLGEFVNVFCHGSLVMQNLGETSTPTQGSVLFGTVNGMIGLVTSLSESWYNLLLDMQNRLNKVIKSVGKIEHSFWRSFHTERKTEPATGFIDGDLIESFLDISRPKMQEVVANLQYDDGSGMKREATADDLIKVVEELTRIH
Description: CAL-51 cells were purchased from DSMZ (cat. Number ACC302), sub-cultured in 90% Dulbecco's MEM (4.5 g/L glucose, Gibco 11965)+10% heat inactivated FBS (BioConcept, 2-01F1361) and incubated at 37° C., 5% CO2. For the assay, imaging microtiterplate Cell Carrier 96 Ultra (Perkin Elmer 6055302) were pre-coated with Fibronectin (Sigma F085, 30 μl at 0.2 μg/ml) in PBS (100p, Gibco 14190) for 45 min at room temperature, rinsed with PBS and CAL-51 cells (30K cells/well) were plated and let to adhere overnight. Cells were treated with compounds typically using a serial dilution ranging from 30 μM to 0.1 nM for 6 hours. Compounds were stored at 10 mM DMSO stocks. Vehicle (DMSO), positive (CC-885, 10 μM) and rescue controls (positive control plus 0.2 μM bortezomib) were also included at this stage. Cells were subsequently rinsed with PBS and fixed in 10% Formalin solution (50p, Sigma HT5011)) for 20 mins at room temperature. Following three consecutive PBS washes (100 μl), cells were permeabilized in 0.1% Triton X-100 in PBS (Sigma 93443, 50 μl) for 15 mins at room temperature. Following three further PBS washes, 50 μl blocking buffer (1% BSA, Sigma A4503, in PBS) was added for 45 min for signal-to-noise reduction. Primary antibody (human GSPT1, Sigma HPA052488) was diluted in blocking buffer (dil.1/300, 35 μl/well) and incubated with the cells overnight at 4° C. After three PBS washes, Alexa-fluor 488 coupled secondary antibodies (Invitrogen, A32731, dil. 1/1000), Alexa-fluor 647-Phalloïdin (Invitrogen, A22287, dil. 1/200) and DAPI (Thermo, #62248, dil.1/1000) were diluted in blocking buffer and incubated with the samples for 2 hours at room temperature. After three final PBS washes, samples were conserved in 100 μl PBS in the dark, until measurement. Image acquisition was performed on the Operetta High-Content Imager (Perkin-Elmer). Fluorescence intensity of Alexa-Fluor 488 (GSPT1), Alexa-Fluor 647 (Actin) and DAPI (Nucleus) were measured. For the determination of GSPT1 DC50 values, a custom algorithm implemented in the PerkinElmer image analysis software Harmony-Acapella@ was developed. After user-defined setting of adjustment parameters, the analysis was run identically without human intervention for all image fields. DAPI staining of the nuclei was used to determine the location of cells using standard nuclei detection modules. Segmentation artifacts were removed by threshold-based filters for area, roundness and intensity. The outline of the cells was determined analogously from the sum of the normalized, smoothed DAPI and Actin channel, starting from each nucleus.
The Alexa-Fluor 488 (GSPT1) signal intensity in each cell was finally measured, in order to obtain a Mean intensity per cell. GSPT1 degradation (DC50) was calculated after normalization to controls and data import in CDD vault Database, using non-linear regression.

[3] = compounds 1 to 165, read-out: Activity for GSPT1 degradation (DC50 code)
[4] = compounds 201 to 307, read-out: Activity for GSPT1 degradation (DC50 code)

Row | IC50 [1] | DC50 [2, 4] | SMILES | further results
1 |  | < 30 nM | CC1CCCN1c1ccc(NC(=O)OCc2ccc3c(c2)C(=O)N(C2CCC(=O)NC2=O)C3)cn1 (stereo not shown) [Compound 274] | 
2 | < 1100 nM |  | O=C1CCC(N2Cc3ccc(COC(=O)Nc4ccc(N5CCOCC5)nc4)cc3C2=O)C(=O)N1 (stereo not shown) [Compound 276] | 
3 |  | < 30 nM | O=C1CCC(N2Cc3ccc(COC(=O)Nc4ccc5c(c4)OC(F)(F)O5)cc3C2=O)C(=O)N1 (stereo not shown) [Compound 279] | 
4 |  | < 30 nM | O=C1CCC(N2Cc3ccc(COC(=O)Nc4ccc(-c5ccccc5F)nc4)cc3C2=O)C(=O)N1 (stereo not shown) [Compound 284] | 
5 |  | < 30 nM | O=C1CCC(N2Cc3ccc(COC(=O)Nc4cnc(-c5ccccc5)c(F)c4)cc3C2=O)C(=O)N1 (stereo not shown) [Compound 285] | 
6 | < 1100 nM |  | CN(C)C1CN(c2ccc(NC(=O)OCc3ccc4c(c3)C(=O)N(C3CCC(=O)NC3=O)C4)cn2)C1 (stereo not shown) [Compound 289] | 
7 |  | < 30 nM | COc1cc(NC(=O)OCc2ccc3c(c2)C(=O)N(C2CCC(=O)NC2=O)C3)cnc1-c1ccccc1 (stereo not shown) [Compound 290] | 
8 | < 1100 nM |  | O=C1CCC(N2Cc3ccc(COC(=O)Nc4cccc(OC5CC5)c4)cc3C2=O)C(=O)N1 (stereo not shown) [Compound 293] | 
9 |  | < 30 nM | O=C1CCC(N2Cc3ccc(COC(=O)Nc4cc(CN5CCOCC5)cc(OC(F)F)c4)cc3C2=O)C(=O)N1 (stereo not shown) [Compound 295] | 
10 |  | < 30 nM | O=C1CCC(N2Cc3ccc(COC(=O)Nc4cc(OCCN5CCOCC5)cc(OC(F)F)c4)cc3C2=O)C(=O)N1 (stereo not shown) [Compound 296] | 
11 | < 1100 nM |  | O=C1CCC(N2Cc3ccc(COC(=O)NCc4ccccc4)cc3C2=O)C(=O)N1 (stereo not shown) [Compound 298] | 
12 | < 1100 nM |  | O=C1CCC(N2Cc3ccc(COC(=O)Nc4cc(CN5CC6CC5CO6)cc(OC(F)F)c4)cc3C2=O)C(=O)N1 (stereo not shown) [Compound 300] | 
13 | < 1100 nM |  | CC(NC(=O)OCc1ccc2c(c1)C(=O)N(C1CCC(=O)NC1=O)C2)c1ccccc1 (stereo not shown) [Compound 302] | 
14 | < 1100 nM |  | O=C1CCC(N2Cc3ccc(COC(=O)Nc4ccc(C5CCC5)nc4)cc3C2=O)C(=O)N1 (stereo not shown) [Compound 305] | 
15 | < 1100 nM |  | O=C1CCC(N2Cc3ccc(COC(=O)Nc4cc(OCCN5CCOCC5)cc(OC(F)(F)F)c4)cc3C2=O)C(=O)N1 (stereo not shown) [Compound 306] | 

The next lines start with the molecule.

Row | SMILES | IC50 [1] | DC50 [2, 4] | further results
16 | COc1ccc(CCNC(=O)NCc2ccc3c(c2)C(=O)N(C2CCC(=O)NC2=O)C3)cc1 (stereo not shown) [Compound 51] | < 1100 nM |  | DC50 [2, 3]: > 300 nM
17 | COc1ccccc1CNC(=O)NCc1ccc2c(c1)C(=O)N(C1CCC(=O)NC1=O)C2 (stereo not shown) [Compound 60] | < 1100 nM |  | DC50 [2, 3]: > 300 nM
18 | COc1cc(C)c(Cl)cc1NC(=O)OCc1ccc2c(c1)C(=O)N(C1CCC(=O)NC1=O)C2 (stereo not shown) [Compound 201] |  | < 30 nM | 
19 | O=C1CCC(N2Cc3ccc(COC(=O)Nc4cccc(OC(F)F)c4)cc3C2=O)C(=O)N1 (stereo not shown) [Compound 205] |  | < 30 nM | 
20 | Cc1cc(NC(=O)OCc2ccc3c(c2)C(=O)N(C2CCC(=O)NC2=O)C3)cc(C)n1 (stereo not shown) [Compound 207] | < 1100 nM |  | 
21 | Cc1ccc(NC(=O)OCc2ccc3c(c2)C(=O)N(C2CCC(=O)NC2=O)C3)cc1Cl (stereo not shown) [Compound 210] |  | < 30 nM | 
22 | O=C1CCC(N2Cc3ccc(COC(=O)Nc4cc(Cl)cc(OC(F)(F)F)c4)cc3C2=O)C(=O)N1 (stereo not shown) [Compound 211] |  | < 30 nM | 
23 | O=C1CCC(N2Cc3ccc(COC(=O)Nc4ccc5c(c4)OCC5)cc3C2=O)C(=O)N1 (stereo not shown) [Compound 218] | < 1100 nM |  | 
24 | Cc1c(Cl)cc(NC(=O)OCc2ccc3c(c2)C(=O)N(C2CCC(=O)NC2=O)C3)cc1CN1CC2CCC(C1)O2 (stereo not shown) [Compound 221] |  | < 30 nM | 
25 | O=C1CCC(N2Cc3ccc(COC(=O)N4CCCC4)cc3C2=O)C(=O)N1 (stereo not shown) [Compound 226] | < 1100 nM |  | 
26 | O=C1CCC(N2Cc3ccc(COC(=O)NC4CCCC4)cc3C2=O)C(=O)N1 (stereo not shown) [Compound 229] | < 1100 nM |  | 
27 | CCOc1cc(NC(=O)OCc2ccc3c(c2)C(=O)N(C2CCC(=O)NC2=O)C3)ccc1C (stereo not shown) [Compound 233] | < 1100 nM |  | 
28 | Cc1c(CN2CCOCC2)cc(NC(=O)OCc2ccc3c(c2)C(=O)N(C2CCC(=O)NC2=O)C3)cc1OC(F)(F)F (stereo not shown) [Compound 234] |  | < 30 nM | 
29 | COc1cc(Cl)ccc1NC(=O)OCc1ccc2c(c1)C(=O)N(C1CCC(=O)NC1=O)C2 (stereo not shown) [Compound 238] | < 1100 nM |  | 
30 | O=C1CCC(N2Cc3ccc(COC(=O)Nc4ccc(-c5ccccc5)nc4)cc3C2=O)C(=O)N1 (stereo not shown) [Compound 242] |  | < 30 nM | 
31 | CC(C)(C)c1ccc(NC(=O)OCc2ccc3c(c2)C(=O)N(C2CCC(=O)NC2=O)C3)cn1 (stereo not shown) [Compound 243] |  | < 30 nM | 

Row | SMILES | IC50 [1] | DC50 [2, 4] | further results
32 | Cc1c(Cl)cc(NC(=O)OCc2ccc3c(c2)C(=O)N(C2CCC(=O)NC2=O)C3)cc1OC1CCNC1 (stereo not shown) [Compound 244] | < 1100 nM |  | 
33 | CN1CCC(Oc2cc(Cl)cc(NC(=O)OCc3ccc4c(c3)C(=O)N(C3CCC(=O)NC3=O)C4)c2)C1 (stereo not shown) [Compound 246] |  | < 30 nM | 
34 | CC(C)(C)c1ccc(NC(=O)OCc2ccc3c(c2)C(=O)N(C2CCC(=O)NC2=O)C3)cc1 (stereo not shown) [Compound 247] |  | < 30 nM | 
35 | Cc1c(Cl)cc(NC(=O)OCc2ccc3c(c2)C(=O)N(C2CCC(=O)NC2=O)C3)cc1OCCN1CCOCC1 (stereo not shown) [Compound 248] |  | < 30 nM | 
36 | CCc1ncc(NC(=O)OCc2ccc3c(c2)C(=O)N(C2CCC(=O)NC2=O)C3)cc1C (stereo not shown) [Compound 249] |  | < 30 nM | 
37 | O=C1CCC(N2Cc3ccc(COC(=O)Nc4ccc(-c5ccccn5)cc4)cc3C2=O)C(=O)N1 (stereo not shown) [Compound 250] |  | < 30 nM | 
38 | COc1cc(NC(=O)OCc2ccc3c(c2)C(=O)N(C2CCC(=O)NC2=O)C3)cnc1C (stereo not shown) [Compound 251] | < 1100 nM |  | 
39 | Cc1c(Cl)cc(NC(=O)OCc2ccc3c(c2)C(=O)N(C2CCC(=O)NC2=O)C3)cc1OCC1CCNC1 (stereo not shown) [Compound 252] | < 1100 nM |  | 
40 | O=C1CCC(N2Cc3ccc(COC(=O)Nc4cnc5c(c4)CCC5)cc3C2=O)C(=O)N1 (stereo not shown) [Compound 253] | < 1100 nM |  | 
41 | O=C1CCC(N2Cc3ccc(COC(=O)Nc4cc(F)cc(OC(F)(F)F)c4)cc3C2=O)C(=O)N1 (stereo not shown) [Compound 257] |  | < 30 nM | 
42 | O=C1CCC(N2Cc3ccc(COC(=O)Nc4ccc(F)c(OC(F)(F)F)c4)cc3C2=O)C(=O)N1 (stereo not shown) [Compound 261] |  | < 30 nM | 
43 | CC1(c2ccc(NC(=O)OCc3ccc4c(c3)C(=O)N(C3CCC(=O)NC3=O)C4)cc2)COC1 (stereo not shown) [Compound 262] | < 1100 nM |  | 
44 | O=C1CCC(N2Cc3ccc(COC(=O)Nc4cnc(N5CCCCC5)nc4)cc3C2=O)C(=O)N1 (stereo not shown) [Compound 264] | < 1100 nM |  | 
45 | O=C1CCC(N2Cc3ccc(COC(=O)Nc4ccc5c(c4)CCCO5)cc3C2=O)C(=O)N1 (stereo not shown) [Compound 267] | < 1100 nM |  | 
46 | CC1CCN(c2ccc(NC(=O)OCc3ccc4c(c3)C(=O)N(C3CCC(=O)NC3=O)C4)cn2)C1 (stereo not shown) [Compound 269] |  | < 30 nM | 
47 | O=C1CCC(N2Cc3ccc(COC(=O)Nc4cnc(N5CCCCC5)c(F)c4)cc3C2=O)C(=O)N1 (stereo not shown) [Compound 272] | < 1100 nM |  | 
